According to article PMC7715017, “Conjugation of Synthetic Polyproline Moietes to Lipid II Binding Fragments of Nisin Yields Active and Stable Antimicrobials” (Frontiers in Microbiology, 2020):
Read-outs that look alike come from different tables or passages of the source. Non-standard residues stand in square brackets, D forms with d. Residues, ends and D or L forms follow the SMILES beside them. *: point of attachment. Oic = O=C(O)[C@@H]1C[C@@H]2CCCC[C@@H]2N1; Pent4ynoyl = C#CCCC(=O)*

How the values were obtained:
[1] = test system: L. lactis NZ9000 (pEmpty); details: broth microdilution (Wiegand et al. 2008); samples in 0.05% acetic acid; strain with empty plasmid
Protocol: (§1) All samples were resuspended in 0.05% aqueous acetic acid solution and the peptide amount was quantified by HPLC according to Schmitt et al. ([Schmitt et al., 2019]). The indicator strains MW2-MRSA, Enterococcus faecium, Listeria monocytogenes, and Lactococcus lactis were first streaked on GM17 plate and cultured overnight. The peptide samples were diluted with 0.05% acetic acid to a concentration of 40–320 μM (depending on the estimated activity of the peptide and the strain tested). The MIC value test was performed according to [Wiegand et al. (2008)].
(§2) M. flavus was used as the indicator strain for the agar well diffusion assay, and 0.15 nmol of each sample was added to each well (Figure 3). […] Antimicrobial activity of all compounds was tested by growth inhibition assays against two clinically relevant Gram-positive pathogens, i.e., methicillin resistant S. aureus and vancomycin resistant E. faecium, as well as L. monocytogenes, and L. lactis. […] For this experiment, an activity test was performed against the NSR producing strain L. lactis NZ9000 (pNSR).

[2] = test system: Enterococcus faecium LMG 16003 (vancomycin resistant, VRE)
Protocol: as §1, §2

[3] = test system: Listeria monocytogenes LMG 10470
Protocol: as §1, §2

[4] = test system: MW2-MRSA (Staphylococcus aureus MW2, methicillin resistant)
Protocol: as §1, §2

[5] = MW2- ( MW2, methicillin resistant)
[6] = broth microdilution (Wiegand et al. 2008), samples in 0.05% acetic acid, quantified by HPLC

MIC value, E. faecium ([2]; LMG 16003) | MIC value, L. monocytogenes ([3]; LMG 10470) | MIC value, MW2-MRSA [4, 5] | SMILES | MIC value, L. lactis NZ9000 (pEmpty) [1] | MIC value, E. faecium [2, 6] | MIC value, L. monocytogenes [3, 6] | MIC value, MW2-MRSA [4, 6]
– | – | – | C=C1NC(=O)[C@H]([C@@H](C)CC)NC(=O)[C@H](NC(=O)/C(=C/C)NC(=O)[C@@H](N)[C@@H](C)CC)CSC[C@@H](C(=O)N[C@H]2C(=O)N3CCC[C@H]3C(=O)NCC(=O)N[C@H](C(=O)N[C@@H](CCCCN)C(=O)NCCCn3cc(CCC(=O)N4[C@H](C(=O)N5[C@H](C(=O)N6[C@H](C(=O)N7[C@H](C(=O)N8[C@H](C(=O)N9[C@H](C(=O)N%10[C@H](C(=O)N%11[C@H](C(=O)N%12[C@H](C(=O)O)C[C@@H]%13CCCC[C@@H]%13%12)C[C@@H]%12CCCC[C@@H]%12%11)C[C@@H]%11CCCC[C@@H]%11%10)C[C@@H]%10CCCC[C@@H]%109)C[C@@H]9CCCC[C@@H]98)C[C@@H]8CCCC[C@@H]87)C[C@@H]7CCCC[C@@H]76)C[C@@H]6CCCC[C@@H]65)C[C@@H]5CCCC[C@@H]54)nn3)CS[C@H]2C)NC(=O)[C@H](CC(C)C)NC1=O [Nisin AB + O9] | 5.0 μM | – | – | –
– | – | – | C=C1NC(=O)[C@H]([C@@H](C)CC)NC(=O)[C@H](NC(=O)/C(=C/C)NC(=O)[C@@H](N)[C@@H](C)CC)CSC[C@@H](C(=O)N[C@H]2C(=O)N3CCC[C@H]3C(=O)NCC(=O)N[C@H](C(=O)N[C@@H](CCCCN)C(=O)NCCCn3cc(CCC(=O)N4[C@H](C(=O)N5[C@H](C(=O)N6[C@H](C(=O)N[C@@H](CCCCN)C(=O)N[C@@H](CCCCN)C(=O)N[C@@H](CCCCN)C(=O)O)C[C@@H]7CCCC[C@@H]76)C[C@@H]6CCCC[C@@H]65)C[C@@H]5CCCC[C@@H]54)nn3)CS[C@H]2C)NC(=O)[C@H](CC(C)C)NC1=O [Nisin AB + O3K3] | >40 μM | – | – | –
>320 µM | >320 µM | >320 µM | C#CCCC(=O)N1[C@H](C(=O)N2[C@H](C(=O)N3[C@H](C(=O)N4[C@H](C(=O)N5[C@H](C(=O)N6[C@H](C(=O)N7[C@H](C(=O)N8[C@H](C(=O)N9[C@H](C(=O)O)C[C@@H]%10CCCC[C@@H]%109)C[C@@H]9CCCC[C@@H]98)C[C@@H]8CCCC[C@@H]87)C[C@@H]7CCCC[C@@H]76)C[C@@H]6CCCC[C@@H]65)C[C@@H]5CCCC[C@@H]54)C[C@@H]4CCCC[C@@H]43)C[C@@H]3CCCC[C@@H]32)C[C@@H]2CCCC[C@@H]21 [O9, Pentynyl-(Oic)9-OH] (Pent4ynoyl-[Oic][Oic][Oic][Oic][Oic][Oic][Oic][Oic][Oic]-OH) | – | – | – | –
– | – | – | C=C1NC(=O)[C@H]([C@@H](C)CC)NC(=O)[C@H](NC(=O)/C(=C/C)NC(=O)[C@@H](N)[C@@H](C)CC)CSC[C@@H](C(=O)N[C@H]2C(=O)N3CCC[C@H]3C(=O)NCC(=O)N[C@H](C(=O)N[C@@H](CCCCN)C(=O)NCCCn3cc(CCC(=O)N4[C@H](C(=O)N5[C@H](C(=O)N6[C@H](C(=O)N7[C@H](C(=O)N8[C@H](C(=O)N9[C@H](C(=O)O)C[C@@H]%10CCCC[C@@H]%109)C[C@@H]9CCCC[C@@H]98)C[C@@H]8CCCC[C@@H]87)C[C@@H]7CCCC[C@@H]76)C[C@@H]6CCCC[C@@H]65)C[C@@H]5CCCC[C@@H]54)nn3)CS[C@H]2C)NC(=O)[C@H](CC(C)C)NC1=O [Nisin AB + O6] | 20 μM | – | – | –
– | – | – | C=C1NC(=O)[C@H]([C@@H](C)CC)NC(=O)[C@H](NC(=O)/C(=C/C)NC(=O)[C@@H](N)[C@@H](C)CC)CSC[C@@H](C(=O)N[C@H]2C(=O)N3CCC[C@H]3C(=O)NCC(=O)N[C@H](C(=O)N[C@@H](CCCCN)C(=O)NCCCn3cc(CCC(=O)N4[C@H](C(=O)N5[C@H](C(=O)N6[C@H](C(=O)O)C[C@@H]7CCCC[C@@H]76)C[C@@H]6CCCC[C@@H]65)C[C@@H]5CCCC[C@@H]54)nn3)CS[C@H]2C)NC(=O)[C@H](CC(C)C)NC1=O [Nisin AB + O3] | >40 μM | – | – | –
>320 µM | >320 µM | >320 µM | C#CCCC(=O)N1[C@H](C(=O)N2[C@H](C(=O)N3[C@H](C(=O)O)C[C@@H]4CCCC[C@@H]43)C[C@@H]3CCCC[C@@H]32)C[C@@H]2CCCC[C@@H]21 [O3] | – | – | – | –
>320 µM | >320 µM | >320 µM | C#CCCC(=O)N1[C@H](C(=O)N2[C@H](C(=O)N3[C@H](C(=O)N4[C@H](C(=O)N5[C@H](C(=O)N6[C@H](C(=O)O)C[C@@H]7CCCC[C@@H]76)C[C@@H]6CCCC[C@@H]65)C[C@@H]5CCCC[C@@H]54)C[C@@H]4CCCC[C@@H]43)C[C@@H]3CCCC[C@@H]32)C[C@@H]2CCCC[C@@H]21 [O6] (Pent4ynoyl-[Oic][Oic][Oic][Oic][Oic][Oic]-OH) | – | – | – | –
– | – | – | C#CCCC(=O)N1[C@H](C(=O)N2[C@H](C(=O)N3[C@H](C(=O)N4[C@H](C(=O)N5[C@H](C(=O)N6[C@H](C(=O)N[C@@H](CCCCN)C(=O)N[C@@H](CCCCN)C(=O)N[C@@H](CCCCN)C(=O)O)C[C@@H]7CCCC[C@@H]76)C[C@@H]6CCCC[C@@H]65)C[C@@H]5CCCC[C@@H]54)C[C@@H]4CCCC[C@@H]43)C[C@@H]3CCCC[C@@H]32)C[C@@H]2CCCC[C@@H]21 [O6K3] (Pent4ynoyl-[Oic][Oic][Oic][Oic][Oic][Oic]KKK-OH) | >80 μM | >80 µM | >80 µM | >80 µM

SMILES | MIC value, E. faecium ([2]; LMG 16003) | MIC value, L. monocytogenes ([3]; LMG 10470) | MIC value, MW2-MRSA [4, 5] | MIC value, L. lactis NZ9000 (pEmpty) [1] | MIC value, E. faecium [2, 6] | MIC value, L. monocytogenes [3, 6] | MIC value, MW2-MRSA [4, 6]
C=C1NC(=O)[C@H]([C@@H](C)CC)NC(=O)[C@H](NC(=O)/C(=C/C)NC(=O)[C@@H](N)[C@@H](C)CC)CSC[C@@H](C(=O)N[C@H]2C(=O)N3CCC[C@H]3C(=O)NCC(=O)N[C@H](C(=O)N[C@@H](CCCCN)C(=O)N[C@H]3C(=O)NCC(=O)N[C@@H](C)C(=O)N[C@@H](CC(C)C)C(=O)N[C@@H](CCSC)C(=O)NCC(=O)N[C@H](C(=O)N[C@@H](CC(N)=O)C(=O)NCCCn4cc(CCC(=O)N5[C@H](C(=O)N6[C@H](C(=O)N7[C@H](C(=O)O)C[C@@H]8CCCC[C@@H]87)C[C@@H]7CCCC[C@@H]76)C[C@@H]6CCCC[C@@H]65)nn4)CS[C@H]3C)CS[C@H]2C)NC(=O)[C@H](CC(C)C)NC1=O [Nisin ABC + O3] | 20 µM | >80 µM | >80 µM | 5.0 μM | – | – | –
C=C1NC(=O)[C@H]([C@@H](C)CC)NC(=O)[C@H](NC(=O)/C(=C/C)NC(=O)[C@@H](N)[C@@H](C)CC)CSC[C@@H](C(=O)N[C@H]2C(=O)N3CCC[C@H]3C(=O)NCC(=O)N[C@H](C(=O)N[C@@H](CCCCN)C(=O)N[C@H]3C(=O)NCC(=O)N[C@@H](C)C(=O)N[C@@H](CC(C)C)C(=O)N[C@@H](CCSC)C(=O)NCC(=O)N[C@H](C(=O)N[C@@H](CC(N)=O)C(=O)NCCCn4cc(CCC(=O)N5[C@H](C(=O)N6[C@H](C(=O)N7[C@H](C(=O)N8[C@H](C(=O)N9[C@H](C(=O)N%10[C@H](C(=O)N%11[C@H](C(=O)N%12[C@H](C(=O)N%13[C@H](C(=O)O)C[C@@H]%14CCCC[C@@H]%14%13)C[C@@H]%13CCCC[C@@H]%13%12)C[C@@H]%12CCCC[C@@H]%12%11)C[C@@H]%11CCCC[C@@H]%11%10)C[C@@H]%10CCCC[C@@H]%109)C[C@@H]9CCCC[C@@H]98)C[C@@H]8CCCC[C@@H]87)C[C@@H]7CCCC[C@@H]76)C[C@@H]6CCCC[C@@H]65)nn4)CS[C@H]3C)CS[C@H]2C)NC(=O)[C@H](CC(C)C)NC1=O [Nisin ABC + O9] | 10 µM | 40 µM | >80 µM | 5.0 μM | – | – | –
